PubChem BioAssay AID1963965 (Molecular Pharmacology Branch, DTP, NCI, 2024)

System: 996289-038-R-J1-PDC spheroid viability
Experiment: Anticancer human tumor 996289-038-R-J1-PDC patient-derived colon adenocarcinoma cell line growth inhibition [PI3K]
Conditions: spheroids with HUVEC and MSC; for IC50: curve of first compound; for viability, T/C: stronger effect = lower value
Outline: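 Combination activity was assessed by viability in multicellular tumor spheroids carrying HUVEC and MSC components. Agents were tested with PI3K inhibitors from a Cmax-based top dose (or 10 microM) downward in half-log increments.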

[1] = second compound 0.00316 µM, first compound 0.0316 µM
[2] = second compound 0.00316 µM, first compound 0.1 µM
[3] = second compound 0.00316 µM, first compound 0.316 µM
[4] = second compound 0.00316 µM, first compound 1 µM
[5] = second compound 0.01 µM, first compound 0.0316 µM
[6] = second compound 0.01 µM, first compound 0.1 µM
[7] = second compound 0.01 µM, first compound 0.316 µM
[8] = second compound 0.01 µM, first compound 1 µM
[9] = second compound 0.0316 µM, first compound 0.0316 µM
[10] = second compound 0.0316 µM, first compound 0.1 µM
[11] = second compound 0.0316 µM, first compound 0.316 µM
[12] = second compound 0.0316 µM, first compound 1 µM
[13] = second compound 0.1 µM, first compound 0.0316 µM
[14] = second compound 0.1 µM, first compound 0.1 µM
[15] = second compound 0.1 µM, first compound 0.316 µM
[16] = second compound 0.1 µM, first compound 1 µM
[17] = second compound 0.316 µM, first compound 0.0316 µM
[18] = second compound 0.316 µM, first compound 0.1 µM
[19] = second compound 0.316 µM, first compound 0.316 µM
[20] = second compound 0.316 µM, first compound 1 µM
[21] = second compound 1 µM, first compound 0.0316 µM
[22] = second compound 1 µM, first compound 0.1 µM
[23] = second compound 1 µM, first compound 0.316 µM
[24] = second compound 1 µM, first compound 1 µM
[25] = second compound 0.00316 µM, first compound 3.16 µM
[26] = second compound 0.00316 µM, first compound 10 µM
[27] = second compound 0.01 µM, first compound 3.16 µM
[28] = second compound 0.01 µM, first compound 10 µM
[29] = second compound 0.0316 µM, first compound 3.16 µM
[30] = second compound 0.0316 µM, first compound 10 µM
[31] = second compound 0.1 µM, first compound 3.16 µM
[32] = second compound 0.1 µM, first compound 10 µM
[33] = second compound 0.316 µM, first compound 3.16 µM
[34] = second compound 0.316 µM, first compound 10 µM
[35] = second compound 1 µM, first compound 3.16 µM
[36] = second compound 1 µM, first compound 10 µM
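Also: spheroids exposed to compounds for seven days before viability read.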
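For viability, T/C in this document: luminescence used as a proxy for viable cell amount; percent viability relative to DMSO vehicle control as 100%.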

## CCN1CCN(Cc2ccc(Nc3ncc(F)c(-c4cc(F)c5nc(C)n(C(C)C)c5c4)n3)nc2)CC1 + CC(Nc1ccc2c(c1)OCCn1cc(N3C(=O)OCC3C(F)F)nc1-2)C(N)=O
Second compound 0.00316 µM
  IC50: > 1 µM
Second compound 0.01 µM
  IC50: > 1 µM
Second compound 0.0316 µM
  IC50: > 1 µM
Second compound 0.1 µM
  IC50: > 1 µM
Second compound 0.316 µM
  IC50: 0.772 µM
Second compound 1 µM
  IC50: 0.0538 µM
Second compound 0.00316 µM, first compound 0.00316 µM
  viability, T/C: 97.1%
Second compound 0.00316 µM, first compound 0.01 µM
  viability, T/C: 93.1%
[1]
  viability, T/C: 93.2%
[2]
  viability, T/C: 84.8%
[3]
  viability, T/C: 76.9%
[4]
  viability, T/C: 78.3%
Second compound 0.01 µM, first compound 0.00316 µM
  viability, T/C: 98.5%
Second compound 0.01 µM, first compound 0.01 µM
  viability, T/C: 98.9%
[5]
  viability, T/C: 83.2%
[6]
  viability, T/C: 75.8%
[7]
  viability, T/C: 82.9%
[8]
  viability, T/C: 82.8%
Second compound 0.0316 µM, first compound 0.00316 µM
  viability, T/C: 94.9%
Second compound 0.0316 µM, first compound 0.01 µM
  viability, T/C: 83.2%
[9]
  viability, T/C: 78.9%
[10]
  viability, T/C: 69.8%
[11]
  viability, T/C: 79.8%
[12]
  viability, T/C: 67.5%
Second compound 0.1 µM, first compound 0.00316 µM
  viability, T/C: 78.6%
Second compound 0.1 µM, first compound 0.01 µM
  viability, T/C: 75.1%
[13]
  viability, T/C: 74.7%
[14]
  viability, T/C: 66.1%
[15]
  viability, T/C: 61.3%
[16]
  viability, T/C: 65.8%
Second compound 0.316 µM, first compound 0.00316 µM
  viability, T/C: 71.3%
Second compound 0.316 µM, first compound 0.01 µM
  viability, T/C: 73.9%
[17]
  viability, T/C: 64.3%
[18]
  viability, T/C: 54.7%
[19]
  viability, T/C: 57.3%
[20]
  viability, T/C: 48.4%
Second compound 1 µM, first compound 0.00316 µM
  viability, T/C: 53.7%
Second compound 1 µM, first compound 0.01 µM
  viability, T/C: 53.2%
[21]
  viability, T/C: 52.6%
[22]
  viability, T/C: 47.4%
[23]
  viability, T/C: 46.4%
[24]
  viability, T/C: 45%

## Cn1ncc(Cl)c1-c1cc(C(=O)NC(CN)Cc2cccc(F)c2)sc1Cl (stereo unspecified) + CC(Nc1ccc2c(c1)OCCn1cc(N3C(=O)OCC3C(F)F)nc1-2)C(N)=O
Second compound 0.00316 µM
  IC50: > 10 µM
Second compound 0.01 µM
  IC50: 7.33 µM
Second compound 0.0316 µM
  IC50: 4.62 µM
Second compound 0.1 µM
  IC50: 1.84 µM
Second compound 0.316 µM
  IC50: 1.83 µM
Second compound 1 µM
  IC50: 0.352 µM
[1]
  viability, T/C: 83.3%
[2]
  viability, T/C: 82.9%
[3]
  viability, T/C: 84.3%
[4]
  viability, T/C: 80%
[25]
  viability, T/C: 60%
[26]
  viability, T/C: 54.5%
[5]
  viability, T/C: 111%
[6]
  viability, T/C: 97%
[7]
  viability, T/C: 83.8%
[8]
  viability, T/C: 73.7%
[27]
  viability, T/C: 58.6%
[28]
  viability, T/C: 46.5%
[9]
  viability, T/C: 87.2%
[10]
  viability, T/C: 84.2%
[11]
  viability, T/C: 76.6%
[12]
  viability, T/C: 64.8%
[29]
  viability, T/C: 61.3%
[30]
  viability, T/C: 35.5%
[13]
  viability, T/C: 77.8%
[14]
  viability, T/C: 80.2%
[15]
  viability, T/C: 63.9%
[16]
  viability, T/C: 56%
[31]
  viability, T/C: 46%
[32]
  viability, T/C: 33.6%
[17]
  viability, T/C: 66.9%
[18]
  viability, T/C: 59.6%
[19]
  viability, T/C: 75.7%
[20]
  viability, T/C: 55.3%
[33]
  viability, T/C: 43.2%
[34]
  viability, T/C: 28.9%
[21]
  viability, T/C: 53.5%
[22]
  viability, T/C: 52.6%
[23]
  viability, T/C: 52.6%
[24]
  viability, T/C: 43.9%
[35]
  viability, T/C: 38.4%
[36]
  viability, T/C: 25.8%

## Cn1nccc1Nc1nccc(-c2ccn(C(CO)c3ccc(Cl)c(F)c3)c(=O)c2)n1 (stereo unspecified) + CC(Nc1ccc2c(c1)OCCn1cc(N3C(=O)OCC3C(F)F)nc1-2)C(N)=O
Second compound 0.00316 µM
  IC50: > 10 µM
Second compound 0.01 µM
  IC50: > 10 µM
Second compound 0.0316 µM
  IC50: 9.77 µM
Second compound 0.1 µM
  IC50: 9.01 µM
Second compound 0.316 µM
  IC50: 4.82 µM
Second compound 1 µM
  IC50: 2.25 µM
[1]
  viability, T/C: 104%
[2]
  viability, T/C: 98%
[3]
  viability, T/C: 117%
[4]
  viability, T/C: 106%
[25]
  viability, T/C: 94.4%
[26]
  viability, T/C: 58.4%
[5]
  viability, T/C: 104%
[6]
  viability, T/C: 95.3%
[7]
  viability, T/C: 105%
[8]
  viability, T/C: 103%
[27]
  viability, T/C: 70.8%
[28]
  viability, T/C: 53.4%
[9]
  viability, T/C: 98.9%
[10]
  viability, T/C: 110%
[11]
  viability, T/C: 86.8%
[12]
  viability, T/C: 93.6%
[29]
  viability, T/C: 67.8%
[30]
  viability, T/C: 50%
[13]
  viability, T/C: 87.9%
[14]
  viability, T/C: 89.6%
[15]
  viability, T/C: 97.2%
[16]
  viability, T/C: 81%
[31]
  viability, T/C: 78.7%
[32]
  viability, T/C: 46.8%
[17]
  viability, T/C: 79.5%
[18]
  viability, T/C: 74.5%
[19]
  viability, T/C: 61.4%
[20]
  viability, T/C: 67.6%
[33]
  viability, T/C: 58.2%
[34]
  viability, T/C: 39.5%
[21]
  viability, T/C: 56.2%
[22]
  viability, T/C: 64.4%
[23]
  viability, T/C: 53.7%
[24]
  viability, T/C: 73.3%
[35]
  viability, T/C: 45%
[36]
  viability, T/C: 30.2%
